These compounds were tested against human JAK1 (a.a. 837-1142) (assay: In vitro JAK kinase assay (HTRF, phosphorylation of a biotinylated peptide), JAK1). Conditions: measured at 1 mM ATP; JAK2 IC50 / JAK1 IC50.
Format: biochemical
In short: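 Phosphorylation of a biotinylated peptide by purified His-tagged JAK catalytic domains (insect-cell baculovirus expression) ran 1 hr at room temperature. After stopping with EDTA, Eu-Py20 and SA-APC were bound for 40 minutes and HTRF measured.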

| IC50 Ratio JAK2/JAK1 | SMILES |
| --- | --- |
| 6.6 | N#CCC1(n2ccc(-c3ncnc4[nH]ccc34)c2)CN(C2CCN(C(=O)c3c(F)cc(C#N)cc3F)CC2)C1 [Example 265, 4-[(4-{3-(cyanomethyl)-3-[3-(7H-pyrrolo[2,3-d]pyrimidin-4-yl)-1H-pyrrol-1-yl]azetidin-1-yl}piperidin-1-yl)carbonyl]-3,5-difluorobenzonitrile] |
| 6.6 | N#CCC1(n2ccc(-c3ncnc4[nH]ccc34)c2)CN(C2CCN(C(=O)c3cc(F)ccc3C(F)(F)F)CC2)C1 [Example 266, {1-{1-[5-fluoro-2-(trifluoromethyl)benzoyl]piperidin-4-yl}-3-[3-(7H-pyrrolo[2,3-d]pyrimidin-4-yl)-1H-pyrrol-1-yl]azetidin-3-yl}acetonitrile] |
| 6.6 | N#CCC1(n2ccc(-c3ncnc4[nH]ccc34)c2)CN(C2CCN(C(=O)c3ccc(C(F)(F)F)c(F)c3)CC2)C1 [Example 267, {1-{1-[3-fluoro-4-(trifluoromethyl)benzoyl]piperidin-4-yl}-3-[3-(7H-pyrrolo[2,3-d]pyrimidin-4-yl)-1H-pyrrol-1-yl]azetidin-3-yl}acetonitrile] |
| 3.1 | N#CCC1(n2ccc(-c3ncnc4[nH]ccc34)c2)CN(C2CCN(C(=O)c3cccc(C(F)(F)F)c3)CC2)C1 [Example 268, (3-[3-(7H-pyrrolo[2,3-d]pyrimidin-4-yl)-1H-pyrrol-1-yl]-1-{1-[3-(trifluoromethyl)benzoyl]piperidin-4-yl}azetidin-3-yl)acetonitrile] |
| 5.0 | N#CCC1(n2ccc(-c3ncnc4[nH]ccc34)c2)CN(C2CCN(C(=O)c3cc(OC(F)(F)F)ccc3F)CC2)C1 [Example 269] |

Second part, the compound before the results:

| SMILES | IC50 Ratio JAK2/JAK1 |
| --- | --- |
| N#CCC1(n2cc(-c3ncnc4[nH]ccc34)cn2)CN(C2CCN(S(=O)(=O)C3CCCC3)CC2)C1 [Example 253, {1-[1-(cyclopentylsulfonyl)piperidin-4-yl]-3-[4-(7H-pyrrolo[2,3-d]pyrimidin-4-yl)-1H-pyrazol-1-yl]azetidin-3-yl}acetonitrile] | 5.8 |
| Cn1cnc(S(=O)(=O)N2CCC(N3CC(CC#N)(n4cc(-c5ncnc6[nH]ccc56)cn4)C3)CC2)c1 [Example 258, {1-{1-[(1-methyl-1H-imidazol-4-yl)sulfonyl]piperidin-4-yl}-3-[4-(7H-pyrrolo[2,3-d]pyrimidin-4-yl)-1H-pyrazol-1-yl]azetidin-3-yl}acetonitrile] | 5.0 |
| Cc1nc(S(=O)(=O)N2CCC(N3CC(CC#N)(n4cc(-c5ncnc6[nH]ccc56)cn4)C3)CC2)cn1C [Example 259, {1-{1-[(1,2-dimethyl-1H-imidazol-4-yl)sulfonyl]piperidin-4-yl}-3-[4-(7H-pyrrolo[2,3-d]pyrimidin-4-yl)-1H-pyrazol-1-yl]azetidin-3-yl}acetonitrile] | 4.6 |
| Cc1noc(C)c1S(=O)(=O)N1CCC(N2CC(CC#N)(n3cc(-c4ncnc5[nH]ccc45)cn3)C2)CC1 [Example 260, {1-{1-[(3,5-dimethylisoxazol-4-yl)sulfonyl]piperidin-4-yl}-3-[4-(7H-pyrrolo[2,3-d]pyrimidin-4-yl)-1H-pyrazol-1-yl]azetidin-3-yl}acetonitrile] | 7.1 |
| N#CCC1(n2ccc(-c3ncnc4[nH]ccc34)c2)CN(C2CCN(C(=O)c3cccc(C#N)c3)CC2)C1 [Example 262, 3-[(4-{3-(cyanomethyl)-3-[3-(7H-pyrrolo[2,3-d]pyrimidin-4-yl)-1H-pyrrol-1-yl]azetidin-1-yl}piperidin-1-yl)carbonyl]benzonitrile] | 7.4 |
| N#CCC1(n2ccc(-c3ncnc4[nH]ccc34)c2)CN(C2CCN(C(=O)c3ccc(C#N)cc3F)CC2)C1 [Example 264, 4-[(4-{3-(cyanomethyl)-3-[3-(7H-pyrrolo[2,3-d]pyrimidin-4-yl)-1H-pyrrol-1-yl]azetidin-1-yl}piperidin-1-yl)carbonyl]-3-fluorobenzonitrile] | 9.5 |

— US10695337B2, “Piperidin-4-yl azetidine derivatives as JAK1 inhibitors” (Incyte Corporation, priority 2010, dated 2020)
